Where two headings read alike, the source gives them in different places.
Legend:
[1] = tested on: HCT116 (human colon carcinoma cells); experiment: MTT cell proliferation and viability assay, HCT116; assay type: cell-based; conditions: for EC50: HCT-116, Table 2, 72 h; for IC50: HCT-116, Table 3, 72 h, read-out: Inhibition Concentration (IC50) μM HCT116 (Colon)
Procedure: (§1) Normal human fibroblast cell lines (GM9503 and GM8399) and human carcinoma cell lines MCF-7, A549, HCT116, SKOV-3 and PC-3 were maintained in DMEM (Dulbeco's Modified Essential Medium) supplemented with 10% FBS (Fetal Bovine Serum). In addition, murine leukemia MDAY-D2 cells were maintained in RPMI 1640 media supplemented with 5% FBS. All media were supplemented with 100 […] (all from Hyclone, Logan, Utah). Cells were incubated in a humidified air atmosphere containing 5% CO2 at 37° C.
(§2) Cell growth and viability were measured using the 3-(4,5-dimethythiazol-2-yl)-2,5-diphenyl tetrazolium bromide (MTT) reduction assay. MTT reagent (Sigma, St. Louis, Mo.) was prepared at 5 mg/ml in ddH2O (5× solution), filter sterilized and stored in the dark at −20° C.
(§3) To determine the optimal number of cells to seed per well, preliminary experiments were conducted examining increasing cell densities in 96 well plates. Cell were seeded at various densities and examined under the microscope after 96 h. Based on these experiments and growth curve analyses, optimal cell densities were selected for each cell line. In brief, exponentially growing cells were harvested and 100 μL of cell suspension containing approximately 2000 cells was plated in 96-well microtiter plates. After 24 hours of incubation to allow for cell attachment, cells were treated with varying concentrations of test samples in medium (60 μL/well) supplemented with 5% FBS and incubated for 72 h at 37° C. under 5% CO2. Three hours after the addition of MTT, the amount of formazan formed was measured spectrophotometrically at 570 nm with a Spectramax Plus 384 plate reader.
(§4) To assess the effects of the novel compounds on growth and viability, GM9503 (normal human fibroblast cells; 2.08×10^3 cells/well), GM8399 (normal human fibroblast cells; 2.04×10^3 cells/well), A549 (human lung carcinoma cells; 2.05×10^3 cells/well), HCT116 (human colon carcinoma cells; 2.19×10^3 cells/well), MCF-7 (human breast carcinoma cells; 2.19×10^3 cells/well), SKOV-3 (human ovarian carcinoma cells; 2.10×10^3 cells/well), PC-3 (human prostate carcinoma cells; 2.08×10^3 cells/well) and MDAY-D2 (murine leukemia cells; 2.5×10^3 cells/well) were seeded in 96 well plates in supplemented medium. Twenty-four hours post-seeding, cells were treated with either DMEM supplemented with 5% FBS (as a control) or with compounds (IIb), (Ie) and (Id) at increasing concentrations. After incubation for 72 h, cell growth and viability were measured. Each compound was tested in triplicate and the data shown in Tables 2-4 represent the mean of viable cells compared to medium control.

[2] = tested on: MCF-7 (human breast carcinoma cells); experiment: MTT cell proliferation and viability assay, MCF-7; assay type: cell-based; conditions: for EC50: MCF7, Table 2, 72 h; for IC50: MCF7, Table 3, 72 h, read-out: Inhibition Concentration (IC50) μM MCF-7 (Breast)
Procedure: as §1, §2, §3, §4

[3] = tested on: SKOV-3 (human ovarian carcinoma cells); experiment: MTT cell proliferation and viability assay, SKOV-3; assay type: cell-based; conditions: SK-OV-3, Table 3, 72 h, read-out: Inhibition Concentration (IC50) μM SKOV-3 (Ovarian)
Procedure: as §1, §2, §3, §4

[4] = tested on: GM8399 (normal human fibroblast cells); experiment: MTT cell proliferation and viability assay, GM8399; assay type: cell-based; conditions: Table 4, comparative toxicity, 72 h, read-out: Inhibition Concentration (IC50) μM GM8399 (normal human fibroblast)
Procedure: as §1, §2, §3, §4

[5] = tested on: PC-3 (human prostate carcinoma cells); experiment: MTT cell proliferation and viability assay, PC-3; assay type: cell-based; conditions: Table 3, 72 h, read-out: Inhibition Concentration (IC50) μM PC-3 (Prostate)
Procedure: as §1, §2, §3, §4

[6] = tested on: Human colon carcinoma cell line HCT116; experiment: Mechanism of action: microscopy of treated HCT116 cells over time; assay type: cell-based; conditions: 30 μM; for cell morphology (mechanism of cell death): imaged at 2-16 h, 63x magnification
Procedure: Human colon carcinoma cell line HCT116 was treated with compounds (IIb), (Ie) and (Id) and observed over a time period to determine the mechanism of cell death. The experiment was conducted as follows:
HCT116 cells were seeded and treated with each compound. At each time point, the cells were imaged using a neutral microscope at 63× magnification prior to fixing. The time points were 2, 4, 6, 8, 12, and 16 hours.
This may potentially be caused by a population doubling at this time-point.

[7] = tested on: MDAY-D2 (murine leukemia cells); experiment: MTT cell proliferation and viability assay, MDAY-D2; assay type: cell-based
Procedure: as §1, §2, §3, §4

[8] = tested on: GM9503 (normal human fibroblast cells); experiment: MTT cell proliferation and viability assay, GM9503; assay type: cell-based; conditions: for IC50: Table 4, comparative toxicity, 72 h, read-out: Inhibition Concentration (IC50) μM GM9503 (Normal human fibroblast); for EC50: Table 2, 72 h, read-out: Human (EC50) μM GM9503 (Normal Skin Fibroblast)
Procedure: as §1, §2, §3, §4

[9] = tested on: A549 (human lung carcinoma cells); experiment: MTT cell proliferation and viability assay, A549; assay type: cell-based; conditions: for EC50: Table 2, 72 h; for IC50: Table 3, 72 h, read-out: Inhibition Concentration (IC50) μM A549 (Lung)
Procedure: as §1, §2, §3, §4

B16-BL6 = conditions: Banskota et al., J Ethnopharmacol 2002; read-out: EC50 against B16-BL6; cited from earlier work
B-16 melanoma cell line = experiment: [3H]-thymidine incorporation, in vitro anticancer activity; assay type: cell-based; conditions: B16, 24 h + 24 h incubation
Procedure: The cell lines were maintained in EMEM medium supplemented with 10% FCS, 0.1% sodium bicarbonate and 12 mM glutamine. In a typical procedure, 1×10^4 cells were seeded into each of 96 well plate in 90 μL volume of medium. The plates were incubated for 24 h in the presence of CO2 to allow for cell attachment. After 24 h, test compounds were evaluated at five 10 fold dilutions from 1:10, 1:100, 1:1000, 1:10000 and 1:100000. To each test well 100 μL of test compound solution was added and the medium with vehicle was added to control wells and the plates were further incubated. After 24 h of incubation, 10 μL of [3H]-thymidine was added to each well to obtain a 1 μCi concentration per well and incubated for a further 24 h. The plates were terminated, cells harvested and read by microbeta plate reader.

[10] = Mus musculus, MDAY-D2, Table 2, 72 h

O=C(/C=C/c1ccccc1)OCC(O)COC(=O)/C=C/c1ccc(O)c(O)c1 (stereo not shown) [Compound (Ie), (E)-3-(cinnamoyloxy)-2-hydroxypropyl 3-(3,4-dihydroxypheyl)acrylate]
EC50 [1]: 59.2 µM | IC50 [1]: 27.9 µM | EC50 [2]: 25.9 µM | IC50 [2]: 33 µM | IC50 [3]: 16.5 µM | IC50 [4]: 23 µM | IC50 [5]: 9.04 µM | cell morphology (mechanism of cell death) [6]: exhibited the characteristic membrane blebbing morphology commonly seen during apoptosis | EC50 [7, 10]: 1.5 µM | IC50 ([8]; Homo sapiens, Fibroblast): 37 µM | EC50 [9]: 0.64 µM | IC50 [9]: 33.2 µM

O=C(/C=C/c1ccc(O)c(O)c1)OCc1ccccc1 [Benzyl caffeate, benzyl caffeate]
EC50 (B16-BL6): 2.03 µM

O=C(/C=C/c1ccc(O)c(O)c1)OCC(O)COC(=O)/C=C/c1ccc(O)c(O)c1 [Compound (IIb), (2E,2′E)-2-hydroxypropane-1,3-diyl bis(3-(3,4-dihroxyphenyl) acrylate]
IC50 [1]: 27 µM | EC50 [2]: 1 µM | IC50 [2]: 74.5 µM | IC50 [3]: 15.8 µM | IC50 [4]: 38 µM | IC50 [5]: 6.76 µM | EC50 (B-16 melanoma cell line): 6.12 µM | relative aggressiveness of apoptosis induction ([6]; compared among (IIb), (Ie), (Id)): the most aggressive | cell morphology (mechanism of cell death) [6]: exhibited the characteristic membrane blebbing morphology commonly seen during apoptosis | EC50 [7, 10]: 3.4 µM | EC50 ([8]; Homo sapiens, Fibroblast): 57.9 µM | IC50 ([8]; Homo sapiens, Fibroblast): 71.2 µM | EC50 [9]: 2.17 µM | IC50 [9]: 21 µM

COc1cc(/C=C/C(=O)OCC(COC(=O)/C=C/c2ccc(O)cc2)OC(C)=O)ccc1O (stereo not shown) [(E)-2-acetoxy-3-(((E)-3-(4-hydroxy-3-methoxyphenyl)acryloyl)oxy)propyl 3-(4-hydroxyphenyl)acrylate]
EC50 (B16-BL6): 66 µM

COc1ccc(/C=C/C(=O)OCC(O)COC(=O)/C=C/c2ccccc2)cc1OC (stereo not shown) [Compound (Id), (E)-3-(cinnamoyloxy)-2-hydroxypropyl 3-(3,4-dimethoxyphenyl) acrylate]
EC50 [1]: 102 µM | IC50 [1]: 11.5 µM | EC50 [2]: 72.2 µM | IC50 [2]: 85.2 µM | IC50 [3]: 22 µM | IC50 [4]: 16 µM | IC50 [5]: 9.07 µM | EC50 (B-16 melanoma cell line): 1.08 µM | cell morphology (mechanism of cell death) [6]: exhibited the characteristic membrane blebbing morphology commonly seen during apoptosis | EC50 [7, 10]: 5 µM | IC50 ([8]; Homo sapiens, Fibroblast): 60 µM | EC50 [9]: 0.59 µM | IC50 [9]: 18.2 µM

O=C(/C=C/c1ccc(O)c(O)c1)OCCc1ccccc1 [phenethyl caffeate]
EC50 (B16-BL6): 3.16 µM

CC(=O)OC(COC(=O)/C=C/c1ccc(O)cc1)COC(=O)/C=C/c1ccc(O)cc1 [(2E,2′E)-2-acetoxypropane-1,3-diyl bis(3-(4-hydroxyphenyl)acrylate)]
EC50 (B16-BL6): 81.9 µM

CC(=O)O[C@H]1C(=O)[C@@]2(C)[C@H]([C@H](OC(=O)c3ccccc3)[C@]3(O)C[C@H](OC(=O)[C@H](O)[C@@H](NC(=O)c4ccccc4)c4ccccc4)C(C)=C1C3(C)C)[C@]1(OC(C)=O)CO[C@@H]1C[C@@H]2O [paclitaxel, reference compound]
IC50 [1]: 0.59 µM | IC50 [2]: 11.7 µM | IC50 [3]: 0.75 µM | IC50 [4]: 2.1 µM | IC50 [5]: 1.32 µM | IC50 ([8]; Homo sapiens, Fibroblast): 0.7 µM | IC50 [9]: 0.69 µM

O=C(O)/C=C/c1ccc(O)c(O)c1 [caffeic Acid, caffeic acid, reference compound]
IC50 [4]: 24 µM | IC50 ([8]; Homo sapiens, Fibroblast): 22 µM

O=C(/C=C/c1ccc(O)c(O)c1)OCC=Cc1ccccc1 [cinnamyl caffeate]
EC50 (B16-BL6): 1.92 µM

C[S+](C)[O-] [DMSO]
EC50 ([7]; Table 2, 72 h): 43.6 µM | EC50 [8]: 20.3 µM

From patent US10052301B2, “Derivatives of propane diyl dicinnamate” (ORX PHARMACEUTICAL CORPORATION, priority 2009, dated 2018)
